Measured values as given in patent US9988406B2, “Forms of R)-3-(4-(2-(2-methyltetrazol-5-yl)pyridin-5-yl)-3-fluorophenyl)-5-hydroxymethyl oxazolidin-2-one dihydrogen phosphate” (Merck Sharp & Dohme Corp., priority 2009, dated 2018).

Tests used:
[1] = hygroscopicity / water content of the free acid and salt forms; type: physicochemical
[2] = stability of the crystalline free acid and salt forms; type: physicochemical

Row | Compound | hygroscopicity (in words) [1] | water content ([1]; material as prepared) | stability of the crystalline form (in words) [2]
1 | Cn1nnc(-c2ccc(-c3ccc(N4CC(COP(=O)([O-])O)OC4=O)cc3F)cn2)n1.[Na+] (stereo not shown) [mono-sodium salt] | very hygroscopic | over 10 % by weight | 
2 | (R)-3-(4-(2-(2-methyltetrazol-5-yl)pyridin-5-yl)-3-fluorophenyl)-5-hydroxymethyl oxazolidin-2-one dihydrogen phosphate [free acid] | non-hygroscopic |  | very stable at a relatively high temperature
